According to patent US12084416B2, “Substituted sulfonylurea derivatives” (Zydus Lifesciences Limited, priority 2019, dated 2024):

Tests used:
IL-1β [1] = test: In-vivo LPS and ATP induced IL-1β assay; conditions: Mus musculus, 2.5 h; Dose 10 mpk, po; female C57 mice; serum IL-1β by ELISA; read-out: % IL-1β inhibition in LPS + ATP challenged C57 mice
Procedure: All the animal experiments were carried out in female rats and mice, bred in-house. Animals were housed in groups of 6 animals per cage, for a week, in order to habituate them to vivarium conditions (25 f 4° C., 60-65% relative humidity, 12:12 h light:dark cycle, with lights on at 7.30 am). All the animal experiments were carried out according to the internationally valid guidelines following approval by the ‘Zydus Research Center animal ethical committee’.
Female C57 mice (6-8 weeks) received intraperitoneal injection of 50 μg/mouse of lipopolysaccharide (LPS) in PBS. Animals were treated immediately with the test compounds or the vehicle. After 2 h of LPS injection, animals were administered with ATP at 12.5 mg/mouse dissolved in PBS via intraperitoneal route. After 30 minutes of ATP injection, serum was collected for IL-1β estimation by ELISA.

IL-1β [2] = test: In-vitro IL-1β inhibition assay in PMA-differentiated, LPS-primed, ATP-stimulated THP1 cells; format: cell-based; conditions: Homo sapiens, THP-1; THP1 monocytes differentiated with PMA, primed with 500 ng/mL LPS, compound 30 min, 5 mM ATP 1 hr; IL-1β in supernatant; read-out: IC50 (nM), invitro IL-1β inhibitory activity
Procedure: THP1 monocytes were differentiated with PMA (100 ng/mL) and incubated at 37 deg C. for 20 hrs in presence of 5% CO2. 2×10^5 differentiated cells were plated per well of 96 well tissue culture plates. The cells were primed using 500 ng/mL Lipopolysaccharide and incubating for 4 h under the same condition. The cells were then treated with various concentrations of the compounds for 30 min followed by treatment with 5 mM ATP for 1 hr. The supernatants were collected and analyzed by IL-1b (Mabtech Cat #3415-1H-20) or TNF-α (Mabtech; Cat #3510-1H-20) detection kit. The data were analyzed using GraphPad Prism V7.0. Dose Response Curve (DRC) was constructed to determine the IC50 value by fitting percentage […] data to the GraphPad Prism using nonlinear regression analysis.

Compound	inhibition in vivo at 10 mg/kg (IL-1β [1])	IC50 (IL-1β [2])
CN1CCC[C@H]1/C=C/S(=O)(=O)NC(=O)Nc1cc2c(c3c1CCC3)CCC2 [Example 102, (E)-N-((1,2,3,6,7,8-hexahydro-as-indacen-4-yl)carbamoyl)-2-(1-methylpyrrolidin-2-yl)ethene-1-sulfonamide]	74%	
O=C(Nc1c2c(cc3c1CCC3)CCC2)NS(=O)(=O)/C=C/C1CCCO1 (stereo not shown) [Example 73, (E)-N-((1,2,3,5,6,7-hexahydro-s-indacen-4-yl)carbamoyl)-2-(tetrahydrofuran-2-yl)ethene-1-sulfonamide]	80%	
O=C(Nc1c2c(cc3c1CCC3)CCC2)NS(=O)(=O)/C=C/[C@H]1CCCN1CC1CC1 [Example 5, (R,E)-2-(1-(cyclopropylmethyl)pyrrolidin-2-yl)-N-((1,2,3,5,6,7-hexahydro-s-indacen-4-yl)carbamoyl)ethene-1-sulfonamide]	70%	
CC(C)c1cc(F)cc(C(C)C)c1NC(=O)NS(=O)(=O)/C=C/[C@@H]1CCCN1C [Example 77, (S,E)-N-((4-fluoro-2,6-diisopropylphenyl)carbamoyl)-2-(1-methylpyrrolidin-2-yl)ethene-1-sulfonamide]	47%	
CCCN1CCC[C@@H]1/C=C/S(=O)(=O)NC(=O)Nc1c2c(cc3c1CCC3)CCC2 [Example 4, (R,E)-N-((1,2,3,5,6,7-hexahydro-s-indacen-4-yl)carbamoyl)-2-(1-propylpyrrolidin-2-yl)ethene-1-sulfonamide]	90%	7.4 nM
CC(=O)N1CCC[C@H]1/C=C/S(=O)(=O)NC(=O)Nc1c2c(cc3c1CCC3)CCC2 [Example 69, (S,E)-2-(1-acetylpyrrolidin-2-yl)-N-((1,2,3,5,6,7-hexahydro-s-indacen-4-yl)carbamoyl)-ethenesulfonamide]	84%	
